Reference: patent US20180161314A1, “Methods for Treating Hyperuricemia and Related Diseases” (Ardea Biosciences, Inc., priority 2010, published 2018)

Key:
[1] = tested on: healthy adult subjects; assay: Drug 1 / febuxostat cross-over interaction study in healthy adult subjects (Examples 10-12); assay type: in vivo, human; settings: for % serum uric acid change, Mean: drug 1 200 mg qd, febuxostat 40 mg qd
Excerpt: Study Objectives • To compare the multiple-dose pharmacokinetics of febuxostat in the absence versus presence of drug 1 co-administration. • To compare the multiple-dose pharmacokinetics of drug 1 in the absence versus presence of febuxostat co-administration. • To measure the effects of drug 1 and febuxostat, both alone and in combination, on serum uric acid concentrations and amounts of urate excreted into urine. • To evaluate the safety and tolerability of multiple-doses of drug 1 and febuxostat, both alone or in combination.
The study is a two or three-panel, placebo-controlled (for drug 1), double-blinded (for drug 1 and matched placebo), randomized, cross-over study with up to 54 healthy adult subjects. Each panel consisting of 18 subjects is sequentially enrolled, starting with Panel 1 (200 mg once daily dose of drug 1 or placebo), followed by Panel 2 (400 mg once daily dose of drug 1 or placebo), and followed by optional Panel 3 (100 mg to 600 mg once daily dose of drug 1 or placebo). The placebo control is included in this study to better assess safety and tolerability and the serum urate lowering effect of drug 1 in combination with febuxostat. Serum urate levels may be influenced by frequent blood draws and meal contents; therefore, the true effect on serum urate levels can be determined by correcting for placebo (subtract serum urate effect in placebo subjects from serum urate effect in active subjects).
Subjects in each panel are randomly assigned to one of two treatment sequences (Sequence A or B) after all Baseline (Day −1) procedures have been completed. Each treatment sequence within a panel consists of 9 subjects randomly assigned to receive drug 1 (6 of 9 subjects) or matching placebo (3 of 9 subjects) in a double-blinded fashion. For each treatment sequence, single-agent drug treatment is administered on Days 1 to 7 (either open-label febuxostat or double-blinded drug 1 or matched placebo by random assignment), followed by combination treatment on Days 8 to 14, and completing with the alternative single-agent drug treatment on Days 15 to 21, as follows (Panel 1 shown in FIG. 2):
Sequence A: Days 1-7: Febuxostat, 40 mg (once daily) • Days 8 to 14: drug 1, 200 mg or placebo in combination with febuxostat (once daily) • Days 15-21: drug 1, 200 mg, or placebo (once daily) Sequence B: Days 1-7: drug 1, 200 mg, or placebo (once daily) • Days 8 to 14: drug 1, 200 mg or placebo in combination with febuxostat (once daily) • Days 15-21: Febuxostat, 40 mg (once daily) […]
Serial blood samples for PK and PD assessments are collected up to 24 hours after dosing on Days 7, 14, and 21. Urine (total catch) for assays of drug 1, creatinine, and uric acid are collected starting on Day −1 (pre-treatment baseline) and after dosing on Days 7, 14, and 21. Final safety assessments are completed when subjects return to the clinic at 7±1 days after discharge from the clinic on Day 22 (Follow-Up visit on Day 29). The total volume of blood collected from each subject is approximately 518 mL.
Screening procedures to determine subject eligibility are performed 28 days before the first dose of study drug (Day 1). A total of up to 54 subjects enrolled in up to 3 panels consisting of 2 sequences each, with 9 subjects per sequence (18 subjects per panel). Subjects withdrawing after dosing are not replaced.
Subjects in Panel 1 receive a 200 mg dose of drug 1 or placebo once daily for 14 days and a 40 mg dose of febuxostat once daily for 14 days. Subjects in Panel 2 receive a 400 mg dose of drug 1 or placebo once daily for 14 days and a 40 mg dose of febuxostat once daily for 14 days. Subjects in Panel 3 receive a 100-600 mg dose of drug 1 or placebo once daily for 14 days and a 40 mg dose of febuxostat once daily for 14 days.
Subjects in Sequence A begin dosing on Day 1 with febuxostat and take their first dose of drug 1 or placebo on Day 8. […]

[2] = target: T1, URAT1 (Homo sapiens, UniProt Q96S37); settings: in vitro; cited from earlier work
T1 sequence (Q96S37 1-553): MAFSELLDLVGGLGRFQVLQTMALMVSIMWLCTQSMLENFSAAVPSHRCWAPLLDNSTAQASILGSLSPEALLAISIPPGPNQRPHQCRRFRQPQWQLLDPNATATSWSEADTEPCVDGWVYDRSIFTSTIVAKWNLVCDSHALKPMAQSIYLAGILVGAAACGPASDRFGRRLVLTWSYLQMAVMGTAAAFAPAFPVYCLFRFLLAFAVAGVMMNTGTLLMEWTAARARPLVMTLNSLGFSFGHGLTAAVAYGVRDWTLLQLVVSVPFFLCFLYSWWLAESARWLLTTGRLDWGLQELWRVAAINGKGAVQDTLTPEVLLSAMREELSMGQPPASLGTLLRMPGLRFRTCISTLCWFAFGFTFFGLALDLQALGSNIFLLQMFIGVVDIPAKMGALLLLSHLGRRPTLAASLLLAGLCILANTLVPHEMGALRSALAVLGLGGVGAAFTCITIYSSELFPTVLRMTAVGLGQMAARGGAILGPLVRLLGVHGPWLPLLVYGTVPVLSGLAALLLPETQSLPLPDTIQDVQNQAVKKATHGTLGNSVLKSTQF

[3] = Week 1, Drug 1 200 mg alone, febuxostat 40 mg alone
[4] = Week 3, Drug 1 200 mg alone, febuxostat 40 mg alone

## O=C(O)CSc1nnc(Br)n1-c1ccc(C2CC2)c2ccccc12 [Drug 1, Sodium 2-(5-bromo-4-(4-cyclopropylnaphthalen-1-yl)-4H-1,2,4-triazol-3-ylthio)acetate]
[1]; Day 1, Drug 1 200 mg, FBX 40 mg
  serum uric acid change from baseline, daily: −7.4%
[1]; Day 1, Drug 1 400 mg
  serum uric acid change from baseline, daily: −5.5%
[1]; Day 1
  % serum uric acid change, Mean: −14.8%
[1]; Day 2, Drug 1 200 mg, FBX 40 mg
  serum uric acid change from baseline, daily: −22.3%
[1]; Day 2, Drug 1 400 mg
  serum uric acid change from baseline, daily: −28.9%
[1]; Day 2
  % serum uric acid change, Mean: −26.3%
[1]; Day 3, Drug 1 200 mg, FBX 40 mg
  serum uric acid change from baseline, daily: −32.4%
[1]; Day 3, Drug 1 400 mg
  serum uric acid change from baseline, daily: −33.3%
[1]; Day 3
  % serum uric acid change, Mean: −34.7%
[1]; Day 4, Drug 1 200 mg, FBX 40 mg
  serum uric acid change from baseline, daily: −37.7%
[1]; Day 4, Drug 1 400 mg
  serum uric acid change from baseline, daily: −36.2%
[1]; Day 4
  % serum uric acid change, Mean: −31.6%
[1]; Day 5, Drug 1 200 mg, FBX 40 mg
  serum uric acid change from baseline, daily: −36%
[1]; Day 5, Drug 1 400 mg
  serum uric acid change from baseline, daily: −37.3%
[1]; Day 5
  % serum uric acid change, Mean: −31.3%
[1]; Day 6, Drug 1 200 mg, FBX 40 mg
  serum uric acid change from baseline, daily: −39.1%
[1]; Day 6, Drug 1 400 mg
  serum uric acid change from baseline, daily: −45.6%
[1]; Day 6
  % serum uric acid change, Mean: −36.2%
[1]; Day 7, Drug 1 200 mg, FBX 40 mg
  serum uric acid change from baseline, daily: −41.2%
[1]; Day 7, Drug 1 400 mg
  serum uric acid change from baseline, daily: −48.8%
[1]; Day 7
  % serum uric acid change, Mean: −40.7%
[1]; Day 8, Drug 1 200 mg, FBX 40 mg, alone or combined as labelled
  serum uric acid change from baseline, daily: −38.9%
[1]; Day 8, Drug 1 400 mg, alone or + FBX 40 mg as labelled
  serum uric acid change from baseline, daily: −42.5%
[1]; Day 8
  % serum uric acid change, Mean: −37.6%
[1]; Day 15, Drug 1 200 mg, FBX 40 mg, alone or combined as labelled
  serum uric acid change from baseline, daily: −54.8%
[1]; Day 15, Drug 1 400 mg, alone or + FBX 40 mg as labelled
  serum uric acid change from baseline, daily: −68.1%
[1]; Day 16, Drug 1 200 mg alone (week 3), FBX 40 mg alone
  serum uric acid change from baseline, daily: −42.5%
[1]; Day 16, Drug 1 400 mg alone (week 3)
  serum uric acid change from baseline, daily: −53.4%
[1]; Day 17, Drug 1 200 mg alone (week 3), FBX 40 mg alone
  serum uric acid change from baseline, daily: −37.5%
[1]; Day 17, Drug 1 400 mg alone (week 3)
  serum uric acid change from baseline, daily: −44.8%
[1]; Day 18, Drug 1 200 mg alone (week 3), FBX 40 mg alone
  serum uric acid change from baseline, daily: −32.8%
[1]; Day 18, Drug 1 400 mg alone (week 3)
  serum uric acid change from baseline, daily: −40.7%
[1]; Day 19, Drug 1 200 mg alone (week 3), FBX 40 mg alone
  serum uric acid change from baseline, daily: −25.9%
[1]; Day 19, Drug 1 400 mg alone (week 3)
  serum uric acid change from baseline, daily: −33.8%
[1]; Day 20, Drug 1 200 mg alone (week 3), FBX 40 mg alone
  serum uric acid change from baseline, daily: −33%
[1]; Day 20, Drug 1 400 mg alone (week 3)
  serum uric acid change from baseline, daily: −40%
[1]; Day 21, Drug 1 200 mg alone (week 3), FBX 40 mg alone
  serum uric acid change from baseline, daily: −32.4%
[1]; Day 21, Drug 1 400 mg alone (week 3)
  serum uric acid change from baseline, daily: −46.4%
[1]; Day 22, Drug 1 200 mg alone (week 3), FBX 40 mg alone
  serum uric acid change from baseline, daily: −32.8%
[1]; Day 22, Drug 1 400 mg alone (week 3)
  serum uric acid change from baseline, daily: −41.3%
[1]; [3]
  Absolute sUA reduction from baseline, Intraday peak: -3.1 mg/dL
  Absolute sUA reduction from baseline, Trough: -2.4 mg/dL
  Percent sUA reduction from baseline, Intraday peak: −50.4%
  Percent sUA reduction from baseline, Trough: −39.7%
[1]; Week 1, Drug 1 400 mg alone
  Absolute sUA reduction from baseline, Intraday peak: -4.2 mg/dL
  Absolute sUA reduction from baseline, Trough: -3.4 mg/dL
  Percent sUA reduction from baseline, Intraday peak: −60.7%
  Percent sUA reduction from baseline, Trough: −48.5%
[1]; [4]
  Absolute sUA reduction from baseline, Intraday peak: -2.8 mg/dL
  Absolute sUA reduction from baseline, Trough: -2.0 mg/dL
  Percent sUA reduction from baseline, Intraday peak: −48.5%
  Percent sUA reduction from baseline, Trough: −34.7%
[1]; Week 3, Drug 1 400 mg alone
  Absolute sUA reduction from baseline, Intraday peak: -3.6 mg/dL
  Absolute sUA reduction from baseline, Trough: -2.9 mg/dL
  Percent sUA reduction from baseline, Intraday peak: −56.9%
  Percent sUA reduction from baseline, Trough: −45.5%
[2]
  Effect on the URAT1-mediated uptake of uric acid: concentration-dependent inhibitory effect
